Measurements as given in ChEMBL document CHEMBL1201862, “PubChem BioAssay data set” (2004).
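All cell lines were grown in 96-well plates and treated with compound for 48 hours. Here, GI50 denotes the concentration required for 50% inhibition of growth.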 The source made the active and inactive calls. No stated cut-off is given here; in the data, active = GI50 up to about 1.1 µM and inactive = higher.

Assays:
Assay in all cases: inhibition of tumour cell growth, NCI panel, 48 h
[1] = system: SK-MEL-2
[2] = system: A549
[3] = system: CAKI-1
[4] = system: M14
[5] = system: SF-295
[6] = system: OVCAR-3
[7] = system: COLO 205
[8] = system: SF-539
[9] = system: UO-31
[10] = system: OVCAR-5
[11] = system: SN12C
[12] = system: HT-29
[13] = system: LOX IMVI
[14] = system: RXF 393
[15] = system: 786-0
[16] = system: NCI-H23
[17] = system: T47D
[18] = system: NCI-H460
[19] = system: HOP-62
[20] = system: SNB-19
[21] = system: HCT-15
[22] = system: KM12
[23] = system: U-251
[24] = system: UACC-62
[25] = system: NCI-H522
[26] = system: HCT-116
[27] = system: MDA-MB-435
[28] = system: NCI/ADR-RES
[29] = system: MDA-MB-231
[30] = system: SK-OV-3
[31] = system: EKVX
[32] = system: HCC 2998
[33] = system: CCRF-CEM
[34] = system: SK-MEL-5
[35] = system: MDA-N
[36] = system: MCF7
[37] = system: TK-10
[38] = system: SK-MEL-28
[39] = system: NCI-H226
[40] = system: ACHN
[41] = system: HOP-92
[42] = system: IGROV-1
[43] = system: Malme-3M
[44] = system: A498
[45] = system: UACC-257
[46] = system: RPMI-8226
[47] = system: SF-268
[48] = system: SW-620
[49] = system: OVCAR-8
[50] = system: DU-145
[51] = system: K562
[52] = system: OVCAR-4
[53] = system: SNB-75
[54] = system: Hs-578T
[55] = system: BT-549
[56] = system: MOLT-4
[57] = system: PC-3
[58] = system: SR
[59] = system: HL-60

O=c1[nH]/c(=C/c2ccc3c(c2)OCO3)c(=O)[nH]/c1=C/c1ccc2c(c1)OCO2
GI50 [1]: > 10 µM (inactive) | GI50 [2]: > 10 µM (inactive) | GI50 [3]: > 10 µM (inactive) | GI50 [4]: > 10 µM (inactive) | GI50 [5]: > 10 µM (inactive) | GI50 [6]: > 10 µM (inactive) | GI50 [7]: > 10 µM (inactive) | GI50 [8]: > 10 µM (inactive) | GI50 [9]: > 10 µM (inactive) | GI50 [10]: > 10 µM (inactive) | GI50 [11]: > 10 µM (inactive) | GI50 [12]: > 10 µM (inactive) | GI50 [13]: > 10 µM (inactive) | GI50 [14]: > 10 µM (inactive) | GI50 [15]: > 10 µM (inactive) | GI50 [16]: > 10 µM (inactive) | GI50 [17]: > 10 µM (inactive) | GI50 [18]: > 10 µM (inactive) | GI50 [19]: > 10 µM (inactive) | GI50 [20]: > 10 µM (inactive) | GI50 [21]: > 10 µM | GI50 [22]: > 10 µM (inactive) | GI50 [23]: > 10 µM (inactive) | GI50 [24]: > 10 µM (inactive) | GI50 [25]: > 10 µM (inactive) | GI50 [26]: > 10 µM (inactive) | GI50 [27]: > 10 µM (inactive) | GI50 [28]: > 10 µM (inactive) | GI50 [29]: > 10 µM (inactive) | GI50 [30]: > 10 µM (inactive) | GI50 [31]: > 10 µM (inactive) | GI50 [32]: > 10 µM (inactive) | GI50 [33]: > 10 µM (inactive) | GI50 [34]: > 10 µM (inactive) | GI50 [35]: > 10 µM (inactive) | GI50 [36]: > 10 µM (inactive) | GI50 [37]: > 10 µM (inactive) | GI50 [38]: 8.89 µM (inactive) | GI50 [39]: > 10 µM (inactive) | GI50 [40]: > 10 µM (inactive) | GI50 [41]: > 10 µM (inactive) | GI50 [42]: > 10 µM (inactive) | GI50 [43]: > 10 µM (inactive) | GI50 [44]: > 10 µM (inactive) | GI50 [45]: > 10 µM (inactive) | GI50 [46]: > 10 µM (inactive) | GI50 [47]: > 10 µM (inactive) | GI50 [48]: > 10 µM (inactive) | GI50 [49]: > 10 µM (inactive) | GI50 [50]: > 10 µM (inactive) | GI50 [51]: > 10 µM (inactive) | GI50 [52]: > 10 µM (inactive) | GI50 [53]: > 10 µM (inactive) | GI50 [54]: > 10 µM (inactive) | GI50 [55]: > 10 µM (inactive) | GI50 [56]: > 10 µM (inactive) | GI50 [57]: > 10 µM (inactive)

C=C(C)C(=O)O[C@@H]1C/C(C)=C\[C@H](OC(C)=O)C[C@](C)(O)/C=C2/OC(=O)C(COC(C)=O)=C21
GI50 [1]: 2.87 µM (inactive) | GI50 [2]: 2.95 µM (inactive) | GI50 [3]: 0.329 µM (active) | GI50 [4]: 0.673 µM (active) | GI50 [5]: 6.76 µM (inactive) | GI50 [6]: 0.726 µM (active) | GI50 [7]: 0.238 µM (active) | GI50 [8]: 1.28 µM (inactive) | GI50 [9]: 1.63 µM (inactive) | GI50 [10]: 1.99 µM (inactive) | GI50 [11]: 0.783 µM (active) | GI50 [12]: 0.237 µM (active) | GI50 [13]: 0.152 µM (active) | GI50 [14]: 0.304 µM (active) | GI50 [15]: 1.09 µM (active) | GI50 [16]: 1.77 µM (inactive) | GI50 [17]: 0.834 µM (active) | GI50 [18]: 0.695 µM (active) | GI50 [19]: 5.66 µM (inactive) | GI50 [20]: 12.3 µM (inactive) | GI50 [21]: 0.212 µM | GI50 [22]: 6.32 µM (inactive) | GI50 [23]: 1.09 µM (active) | GI50 [24]: 0.692 µM (active) | GI50 [25]: 0.196 µM (active) | GI50 [26]: 0.394 µM (active) | GI50 [27]: 0.845 µM (active) | GI50 [29]: 0.662 µM (active) | GI50 [30]: 6.12 µM (inactive) | GI50 [31]: 0.962 µM (active) | GI50 [32]: 0.399 µM (active) | GI50 [33]: 0.0649 µM (active) | GI50 [34]: 1.09 µM (active) | GI50 [35]: 0.467 µM (active) | GI50 [36]: 1.05 µM (active) | GI50 [58]: 0.0423 µM (active) | GI50 [37]: 1.5 µM (inactive) | GI50 [38]: 0.251 µM (active) | GI50 [39]: 1.91 µM (inactive) | GI50 [40]: 0.556 µM (active) | GI50 [41]: 0.437 µM (active) | GI50 [42]: 0.834 µM (active) | GI50 [43]: 0.274 µM (active) | GI50 [44]: 3.34 µM (inactive) | GI50 [45]: 1.69 µM (inactive) | GI50 [46]: 0.314 µM (active) | GI50 [47]: 0.668 µM (active) | GI50 [48]: 0.216 µM (active) | GI50 [59]: 0.013 µM (active) | GI50 [49]: 0.69 µM (active) | GI50 [50]: 2.37 µM (inactive) | GI50 [51]: 0.122 µM (active) | GI50 [52]: 1.93 µM (inactive) | GI50 [53]: 3.93 µM (inactive) | GI50 [54]: 2.15 µM (inactive) | GI50 [55]: 1.37 µM (inactive) | GI50 [56]: 0.428 µM (active) | GI50 [57]: 1.61 µM (inactive)
